Source: PubChem BioAssay AID270 (DTP/NCI, 2004)
Values joined by “and” are separate entries in the source; they are usually repeats but may differ in a detail not shown here. Equal values may be shown once. Results filed as inconclusive are left out.

Tested on: BDF1 mice, s.c. Lewis lung carcinoma, T/C %
Experiment: NCI In Vivo Anticancer Drug Screen. Data for tumor model Lewis Lung Carcinoma (subcutaneous) in B6D2F1 (BDF1) mice
How it was run: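 First, mice carry a transplantable tumor. Next, groups receive either compound or vehicle. Finally, survival or tumor dimensions in the dosed animals are divided by the corresponding control figure.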

With `O=P1(N(CCCl)CCCl)NCCCO1` (centres undefined) the T/C (endpoint: mean survival time, dose: 100.0 mg/kg/injection, schedule: Q08DX002 (ip), vehicle: saline, higher = longer survival) was 188 % of control, the T/C (endpoint: mean survival time, dose: 300.0 mg/kg/injection, schedule: Q08DX002 (ip), vehicle: saline, higher = longer survival) was 117 % of control and the T/C (endpoint: mean tumor weight (est.), dose: 65.0 mg/kg/injection, schedule: Q01DX009 (ip), vehicle: saline, higher = larger tumour) was 3 % of control. The T/C (endpoint: mean tumor weight (est.), dose: 108.0 mg/kg/injection, schedule: Q01DX001 (ip), vehicle: saline, higher = larger tumour) was 19 % of control and 37 % of control, the T/C (endpoint: mean tumor weight (est.), dose: 300.0 mg/kg/injection, schedule: Q01DX001 (ip), vehicle: saline, higher = larger tumour) was 15 % of control and the T/C (endpoint: mean tumor weight, dose: 6.25 mg/kg/injection, schedule: Q01DX011 (ip), vehicle: saline, higher = larger tumour) was 70 % of control. For the same compound, the T/C (endpoint: mean tumor weight, dose: 12.0 mg/kg/injection, schedule: Q01DX011 (ip), vehicle: saline, higher = larger tumour) was 55 % of control, the T/C (endpoint: mean tumor weight, dose: 12.5 mg/kg/injection, schedule: Q01DX011 (ip), vehicle: saline, higher = larger tumour) was 74 % of control and the T/C (endpoint: mean tumor weight, dose: 17.0 mg/kg/injection, schedule: Q01DX011 (ip), vehicle: saline, higher = larger tumour) was 43 % of control. The T/C (endpoint: mean tumor weight, dose: 22.5 mg/kg/injection, schedule: Q01DX011 (ip), vehicle: saline, higher = larger tumour) was 19 % of control and 40 % of control, the T/C (endpoint: mean tumor weight, dose: 25.0 mg/kg/injection, schedule: Q01DX011 (ip), vehicle: saline, higher = larger tumour) was 3 % of control and 5 % of control and 12 % of control and the T/C (endpoint: mean tumor weight, dose: 45.0 mg/kg/injection, schedule: Q01DX011 (ip), vehicle: saline, higher = larger tumour) was 2 % of control and 11 % of control. For the same compound, the T/C (endpoint: median survival time, dose: 5.0 mg/kg/injection, schedule: Q01DX011 (ip), vehicle: saline, higher = longer survival) was 107 % of control, the T/C (endpoint: median survival time, dose: 10.0 mg/kg/injection, schedule: Q01DX001 (ip), vehicle: saline, higher = longer survival) was 100 % of control and the T/C (endpoint: median survival time, dose: 10.0 mg/kg/injection, schedule: Q01DX005 (ip), vehicle: saline, higher = longer survival) was 153 % of control and 160 % of control. For the same compound, the T/C (endpoint: median survival time, dose: 10.0 mg/kg/injection, schedule: Q01DX009 (ip), vehicle: saline, higher = longer survival) was 90 % of control, the T/C (endpoint: median survival time, dose: 10.0 mg/kg/injection, schedule: Q01DX011 (ip), vehicle: saline, higher = longer survival) was 89 % of control and the T/C (endpoint: median survival time, dose: 20.0 mg/kg/injection, schedule: Q01DX001 (ip), vehicle: saline, higher = longer survival) was 113 % of control. For the same compound, the T/C (endpoint: median survival time, dose: 20.0 mg/kg/injection, schedule: Q01DX005 (ip), vehicle: saline, higher = longer survival) was 113 % of control, the T/C (endpoint: median survival time, dose: 20.0 mg/kg/injection, schedule: Q01DX009 (ip), vehicle: saline, higher = longer survival) was 104 % of control and the T/C (endpoint: median survival time, dose: 20.0 mg/kg/injection, schedule: Q01DX011 (ip), vehicle: saline, higher = longer survival) was 89 % of control. For the same compound, the T/C (endpoint: median survival time, dose: 23.0 mg/kg/injection, schedule: Q01DX009 (ip), vehicle: saline, higher = longer survival) was 121 % of control and 124 % of control, the T/C (endpoint: median survival time, dose: 25.0 mg/kg/injection, schedule: Q01DX001 (ip), vehicle: saline, higher = longer survival) was 98 % of control and 101 % of control and the T/C (endpoint: median survival time, dose: 25.0 mg/kg/injection, schedule: Q01DX004 (ip), vehicle: saline, higher = longer survival) was 154 % of control. The T/C (endpoint: median survival time, dose: 26.0 mg/kg/injection, schedule: Q01DX001 (ip), vehicle: saline, higher = longer survival) was 94 % of control and 95 % of control, the T/C (endpoint: median survival time, dose: 39.0 mg/kg/injection, schedule: Q01DX009 (ip), vehicle: saline, higher = longer survival) was 91 % of control and the T/C (endpoint: median survival time, dose: 40.0 mg/kg/injection, schedule: Q01DX001 (ip), vehicle: saline, higher = longer survival) was 88 % of control. The T/C (endpoint: median survival time, dose: 40.0 mg/kg/injection, schedule: Q01DX009 (ip), vehicle: saline, higher = longer survival) was 222 % of control, the T/C (endpoint: median survival time, dose: 43.0 mg/kg/injection, schedule: Q01DX001 (ip), vehicle: saline, higher = longer survival) was 112 % of control and 117 % of control and the T/C (endpoint: median survival time, dose: 44.0 mg/kg/injection, schedule: Q01DX005 (ip), vehicle: saline, higher = longer survival) was 184 % of control and 233 % of control. The T/C (endpoint: median survival time, dose: 44.4 mg/kg/injection, schedule: Q04DX003 (ip), vehicle: saline, higher = longer survival) was 105 % of control and 224 % of control, the T/C (endpoint: median survival time, dose: 50.0 mg/kg/injection, schedule: Q01DX001 (ip), vehicle: saline, higher = longer survival) was 112 % of control and 117 % of control and the T/C (endpoint: median survival time, dose: 50.0 mg/kg/injection, schedule: Q01DX001 (ip), vehicle: water, higher = longer survival) was 118 % of control. The T/C (endpoint: median survival time, dose: 50.0 mg/kg/injection, schedule: Q01DX004 (ip), vehicle: saline, higher = longer survival) was 225 % of control, the T/C (endpoint: median survival time, dose: 50.0 mg/kg/injection, schedule: Q01DX005 (ip), vehicle: saline, higher = longer survival) was 158 % of control and the T/C (endpoint: median survival time, dose: 50.0 mg/kg/injection, schedule: Q04DX003 (sc), vehicle: saline, higher = longer survival) was 208 % of control and 210 % of control. The T/C (endpoint: median survival time, dose: 66.7 mg/kg/injection, schedule: Q04DX003 (ip), vehicle: saline, higher = longer survival) was 167 % of control and 233 % of control, the T/C (endpoint: median survival time, dose: 67.0 mg/kg/injection, schedule: Q01DX005 (ip), vehicle: saline, higher = longer survival) was 220 % of control and the T/C (endpoint: median survival time, dose: 70.0 mg/kg/injection, schedule: Q01DX001 (ip), vehicle: saline, higher = longer survival) was 108 % of control and 112 % of control. For the same compound, the T/C (endpoint: median survival time, dose: 72.0 mg/kg/injection, schedule: Q01DX001 (ip), vehicle: saline, higher = longer survival) was 117 % of control, the T/C (endpoint: median survival time, dose: 80.0 mg/kg/injection, schedule: Q01DX009 (ip), vehicle: saline, higher = longer survival) was 100 % of control and the T/C (endpoint: median survival time, dose: 100.0 mg/kg/injection, schedule: Q01DX001 (ip), vehicle: water, higher = longer survival) was 190 % of control. For the same compound, the T/C (endpoint: median survival time, dose: 100.0 mg/kg/injection, schedule: Q01DX005 (ip), vehicle: saline, higher = longer survival) was 207 % of control, the T/C (endpoint: median survival time, dose: 100.0 mg/kg/injection, schedule: Q04DX003 (ip), vehicle: saline, higher = longer survival) was 192 % of control and 233 % of control and the T/C (endpoint: median survival time, dose: 100.0 mg/kg/injection, schedule: Q08DX002 (ip), vehicle: saline, higher = longer survival) was 208 % of control. For the same compound, the T/C (endpoint: median survival time, dose: 100.0 mg/kg/injection, schedule: Q11DX002 (ip), vehicle: saline, higher = longer survival) was 163 % of control, the T/C (endpoint: median survival time, dose: 150.0 mg/kg/injection, schedule: Q04DX003 (ip), vehicle: saline, higher = longer survival) was 233 % of control and the T/C (endpoint: median survival time, dose: 150.0 mg/kg/injection, schedule: Q07DX002 (ip), vehicle: saline, higher = longer survival) was 233 % of control. For the same compound, the T/C (endpoint: median survival time, dose: 150.0 mg/kg/injection, schedule: Q07DX004 (ip), vehicle: saline, higher = longer survival) was 221 % of control, the T/C (endpoint: median survival time, dose: 150.0 mg/kg/injection, schedule: Q11DX002 (ip), vehicle: saline, higher = longer survival) was 150 % of control and 165 % of control and the T/C (endpoint: median survival time, dose: 200.0 mg/kg/injection, schedule: Q04DX003 (sc), vehicle: saline, higher = longer survival) was 85 % of control. For the same compound, the T/C (endpoint: median survival time, dose: 225.0 mg/kg/injection, schedule: Q01DX001 (ip), vehicle: saline, higher = longer survival) was 153 % of control, the T/C (endpoint: median survival time, dose: 225.0 mg/kg/injection, schedule: Q07DX002 (ip), vehicle: saline, higher = longer survival) was 173 % of control and the T/C (endpoint: median survival time, dose: 225.0 mg/kg/injection, schedule: Q09DX002 (ip), vehicle: saline, higher = longer survival) was 183 % of control. For the same compound, the T/C (endpoint: median survival time, dose: 225.0 mg/kg/injection, schedule: Q11DX002 (ip), vehicle: saline, higher = longer survival) was 166 % of control and 189 % of control, the T/C (endpoint: median survival time, dose: 230.0 mg/kg/injection, schedule: Q01DX001 (ip), vehicle: saline, higher = longer survival) was 154 % of control and the T/C (endpoint: median survival time, dose: 300.0 mg/kg/injection, schedule: Q07DX002 (ip), vehicle: saline, higher = longer survival) was 173 % of control. For the same compound, the T/C (endpoint: median survival time, dose: 300.0 mg/kg/injection, schedule: Q08DX002 (ip), vehicle: saline, higher = longer survival) was 100 % of control, the T/C (endpoint: median survival time, dose: 333.0 mg/kg/injection, schedule: Q01DX001 (ip), vehicle: saline, higher = longer survival) was 157 % of control and 193 % of control and the T/C (endpoint: median survival time, dose: 500.0 mg/kg/injection, schedule: Q01DX001 (ip), vehicle: saline, higher = longer survival) was 72 % of control. The T/C (endpoint: median survival time, dose: 556.0 mg/kg/injection, schedule: Q01DX001 (ip), vehicle: saline, higher = longer survival) was 47 % of control, the T/C (endpoint: median tumor weight (est.), dose: 25.0 mg/kg/injection, schedule: Q01DX009 (ip), vehicle: saline, higher = larger tumour) was 50 % of control and the T/C (endpoint: median tumor weight (est.), dose: 50.0 mg/kg/injection, schedule: Q01DX009 (ip), vehicle: saline, higher = larger tumour) was 11 % of control and 19 % of control. The T/C (endpoint: median tumor weight (est.), dose: 75.0 mg/kg/injection, schedule: Q01DX001 (ip), vehicle: saline, higher = larger tumour) was 76 % of control, the T/C (endpoint: median tumor weight (est.), dose: 103.0 mg/kg/injection, schedule: Q01DX001 (ip), vehicle: saline, higher = larger tumour) was 38 % of control and the T/C (endpoint: median tumor weight (est.), dose: 150.0 mg/kg/injection, schedule: Q01DX001 (ip), vehicle: saline, higher = larger tumour) was 34 % of control. The T/C (endpoint: median tumor weight (est.), dose: 209.0 mg/kg/injection, schedule: Q01DX001 (ip), vehicle: saline, higher = larger tumour) was 16 % of control, the T/C (endpoint: median tumor weight (est.), dose: 300.0 mg/kg/injection, schedule: Q01DX001 (ip), vehicle: saline, higher = larger tumour) was 2 % of control and the T/C (endpoint: median tumor weight (est.), dose: 312.0 mg/kg/injection, schedule: Q01DX001 (ip), vehicle: saline, higher = larger tumour) was 7 % of control.
